Measured values published in ChEMBL document CHEMBL1909496, “Malabaricone C from Myristica cinnamomea exhibits anti-quorum sensing activity” (J Nat Prod, 2011).
Activity calls are given as the source filed them. No cut-off for these calls is given here.

What was measured:
[1] = test system: Pseudomonas aeruginosa PAO1; experiment: Inhibition of Pseudomonas aeruginosa PAO1 quorum sensing assessed as reduction of biofilm formation at 1 mg/ml after 18 hrs using crystal violet staining
[2] = test system: Pseudomonas aeruginosa PAO1; experiment: Inhibition of Pseudomonas aeruginosa PAO1 quorum sensing assessed as reduction of biofilm formation at 3 mg/ml after 18 hrs using crystal violet staining
[3] = test system: Pseudomonas aeruginosa PAO1; experiment: Inhibition of Pseudomonas aeruginosa PAO1 quorum sensing assessed as reduction of biofilm formation at 2 mg/ml after 18 hrs using crystal violet staining
[4] = test system: Chromobacterium violaceum; experiment: Inhibition of Chromobacterium violaceum CV026 quorum sensing assessed as N-3-oxohexanoyl-homoserine lactone-induced violacein production at 3 mg/ml relative to control
Pseudomonas aeruginosa = experiment: Toxicity in Pseudomonas aeruginosa PAO1 quorum sensing assessed as cell viability; type: organism-based
[5] = test system: Pseudomonas aeruginosa PAO1; experiment: Inhibition of Pseudomonas aeruginosa PAO1 quorum sensing assessed as inhibition of pycocyanin production at >/= 0.1 mg/ml after overnight incubation
[6] = test system: Pseudomonas aeruginosa PAO1; experiment: Inhibition of LuxR-dependent quorum sensing in Pseudomonas aeruginosa PAO1 assessed as inhibition of autoinducer production

SMILES	inhibition [1]	inhibition [2]	inhibition [3]	inhibition [4]	Activity (Pseudomonas aeruginosa)	inhibition [5]	inhibition [6]
Oc1cc(O)c2c(c1)O[C@H](c1ccc(O)c(O)c1)[C@@H](O)C2	Active	Active	Active				
O=C(CCCCCCCCc1ccc(O)c(O)c1)c1c(O)cccc1O [MALABARICONE C]	44.9%	69.4%	63%	Active	Non-toxic	Active	inactive
